Measured values reported in paper PMC11393688, “Design and synthesis of new 1,2,4-oxadiazole/quinazoline-4-one hybrids with antiproliferative activity as multitargeted inhibitors” (Frontiers in Chemistry, 2024).

Legend:
[1] = system: breast cancer (MCF-7) cell line; experiment: Antiproliferative MTT assay, MCF-7; type: cell-based; details: Homo sapiens, MCF7, MCF-7 breast cancer cells, read-out: Antiproliferative activity IC50 ± SEM MCF-7
Procedure: (§1) 4.2.1.2. Assay for antiproliferative effect
(§2) To explore the antiproliferative potential of compounds MTT assay was performed according to previously reported procedure using different cell lines to explore the antiproliferative potential of […]
(§3) calculate the total nuclear DNA, a fluorescent dye (propidium iodide, PI) is used which can attach to the DNA, thus offering a quick and precise technique. PI cannot pass through the cell membrane and its signal intensity can be considered as directly proportional to quantity of cellular DNA.
(§4) Cells whose cell membranes are damaged or have changed permeability are counted as dead ones.
(§5) The assay was performed by seeding the cells of different cell lines at a density of 3000-7500 cells/well (in 200µl medium) in culture plates followed by incubation for 24h at 37 °C in humidified 5% CO2/95% air atmospheric conditions. The medium was removed; the compounds were added to the plates at 10 µM concentrations (in 0.1% DMSO) in triplicates, followed by incubation for 48 h. DMSO (0.1%) was used as control. After incubation, medium was removed […]
(§6) 80 °C, the plates were allowed to freeze for 24 h, followed by thawing at 25 °C. […]
(§7) (Polar-Star BMG Tech) was used to record the readings at excitation and emission wavelengths of 530 and 620 nm for each well. The percentage cytotoxicity of compounds was calculated using […]
(§8) Where ATC= Absorbance of treated cells and AC= Absorbance of control. Erlotinib was used as positive control in the assay.

A-549 cells [2] = experiment: Cell cycle analysis by flow cytometry; type: cell-based, human; details: A-549, IC50 concentration, 24 h
Source text: Compound 9b was investigated for its effects on cell cycle progression and apoptosis induction in A-549 cells. […] The cell line was labeled with PI/Annexin V, and flow cytometry was done with a BD FASC Caliber ([El-Sherief et al., 2018]).
Compound 9b was investigated for its effects on cell cycle progression and apoptosis induction in A-549 cells. […] The cell line was labeled with PI/Annexin V, and flow cytometry was done with a BD FASC Caliber ([El-Sherief et al., 2018]). See Supplementary Appendix A for more details.

EGFR = molecular target: T1, EGFR (Homo sapiens, UniProt P00533); experiment: EGFR-TK inhibitory assay; type: biochemical; details: read-out: EGFR inhibition IC50 ± SEM
T1 construct: amino acids 645–1186; His6 (N); made in house; host or cells: Sf-9 insect cells (baculovirus; pBlueBacHis2B / pFASTBacHTc)
T1 sequence (P00533 669-1210): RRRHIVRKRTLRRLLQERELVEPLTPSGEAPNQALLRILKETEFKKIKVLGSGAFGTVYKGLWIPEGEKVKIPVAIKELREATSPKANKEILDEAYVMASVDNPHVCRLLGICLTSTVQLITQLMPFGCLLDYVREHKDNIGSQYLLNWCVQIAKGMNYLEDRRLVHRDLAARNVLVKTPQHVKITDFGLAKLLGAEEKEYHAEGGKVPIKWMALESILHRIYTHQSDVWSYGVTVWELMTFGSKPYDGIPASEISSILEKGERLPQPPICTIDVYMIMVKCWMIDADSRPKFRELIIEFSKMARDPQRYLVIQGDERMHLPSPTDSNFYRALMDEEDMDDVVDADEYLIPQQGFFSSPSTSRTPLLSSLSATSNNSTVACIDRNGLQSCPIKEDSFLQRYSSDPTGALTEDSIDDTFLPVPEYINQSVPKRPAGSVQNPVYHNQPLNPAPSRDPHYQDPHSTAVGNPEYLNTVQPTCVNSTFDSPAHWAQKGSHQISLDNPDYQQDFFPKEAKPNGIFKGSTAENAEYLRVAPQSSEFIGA
Procedure: 4.2.1.3. EGFR inhibitory assay
Sf-9 cells were infected for 72h for protein expression. […]
centrifugation for 20 min.
Histidine-linked proteins were first eluted with 250 and then […]
using wash buffer. Europium-tagged antiphosphotyrosine antibody (75 µL, 400 ng) was added to each well followed by incubation of 1h and then washing of the plates using buffer. The enhancement solution was added to each well and the signal was recorded at excitation and […]
The autophosphorylation percentage inhibition by compounds was calculated using the following equation: […]
(1 picture or pasted object on this page, not shown here)

[3] = system: lung cancer (A-549) cell line; experiment: Antiproliferative MTT assay, A-549; type: cell-based; details: Homo sapiens, A549, A-549 lung cancer cells, read-out: Antiproliferative activity IC50 ± SEM A-549
Procedure: as §1, §2, §3, §4, §5, §6, §7, §8

[4] = system: pancreatic cancer (Panc-1) cell line; experiment: Antiproliferative MTT assay, Panc-1; type: cell-based; details: Homo sapiens, Panc-1 pancreatic cancer cells, read-out: Antiproliferative activity IC50 ± SEM Panc-1
Procedure: as §1, §2, §3, §4, §5, §6, §7, §8

[5] = system: colon cancer (HT-29) cell line; experiment: Antiproliferative MTT assay, HT-29; type: cell-based; details: Homo sapiens, HT-29 colon cancer cells, read-out: Antiproliferative activity IC50 ± SEM HT-29
A-549 cells [6] = experiment: Apoptosis induction assay, Annexin V/PI flow cytometry; type: cell-based, human; details: A-549, Annexin V/PI, 24 h
Procedure: To assess 9b′s potential to induce apoptosis, A-549 cells were labeled with Annexin V/PI, grown for 24 h, and evaluated.
Compound 9b was investigated for its effects on cell cycle progression and apoptosis induction in A-549 cells. […] The cell line was labeled with PI/Annexin V, and flow cytometry was done with a BD FASC Caliber ([El-Sherief et al., 2018]). See Supplementary Appendix A for more details. […]
served as positive control. To study the effect of compounds on cell-based pERK1/2 activity in cancer cells, commercially available ELISA kits (Invitrogen) were used according to manufacturer’s instructions.
4.2.1.6. Cell apoptosis assay
Apoptosis was determined by flow cytometry based on the Annexin-V-fluoresce in isothiocyanate (FITC) and propidium iodide (PI) staining kit (BD Pharmingen, San Diego, USA).
(FITC) and propidium iodide (PI) staining kit (BD Pharmingen, San Diego, USA). Apoptotic cells were defined as Annexin-V-positive. Cells were grown to approximately ∼70% confluence and exposed to different concentrations of compounds (0, 2, 4, 6 and8 μmol/L) for 24 h. […] Subsequently, cells were analyzed by flow cytometry (Becton Dickinson, Franklin Lakes, and USA). […]
Computerized Prism 5 program was used to statistically analyzed data using one-way ANOVA test followed by Tukey’s as post ANOVA for multiple comparison at P ≤.05. […]

[7] = system: four human cancer cell lines (HT-29, Panc-1, A-549, MCF-7); experiment: Average antiproliferative activity (GI50) over four cancer cell lines; type: cell-based; details: average IC50 against the four cancer cell lines
Procedure: as §1, §2, §3, §4, §5, §6, §7, §8

BRAF^V600E = molecular target: T2, BRAF^V600E (Homo sapiens, UniProt P15056, V600E); experiment: BRAF^V600E kinase inhibitory assay; type: biochemical, Mouse; details: read-out: BRAF^V600E inhibition IC50 ± SEM
T2 construct: Mouse full-length GST-tagged BRAFV600E; GST; purchased Invitrogen PV3849
T2 sequence (P15056 2-766 V600E limits assumed): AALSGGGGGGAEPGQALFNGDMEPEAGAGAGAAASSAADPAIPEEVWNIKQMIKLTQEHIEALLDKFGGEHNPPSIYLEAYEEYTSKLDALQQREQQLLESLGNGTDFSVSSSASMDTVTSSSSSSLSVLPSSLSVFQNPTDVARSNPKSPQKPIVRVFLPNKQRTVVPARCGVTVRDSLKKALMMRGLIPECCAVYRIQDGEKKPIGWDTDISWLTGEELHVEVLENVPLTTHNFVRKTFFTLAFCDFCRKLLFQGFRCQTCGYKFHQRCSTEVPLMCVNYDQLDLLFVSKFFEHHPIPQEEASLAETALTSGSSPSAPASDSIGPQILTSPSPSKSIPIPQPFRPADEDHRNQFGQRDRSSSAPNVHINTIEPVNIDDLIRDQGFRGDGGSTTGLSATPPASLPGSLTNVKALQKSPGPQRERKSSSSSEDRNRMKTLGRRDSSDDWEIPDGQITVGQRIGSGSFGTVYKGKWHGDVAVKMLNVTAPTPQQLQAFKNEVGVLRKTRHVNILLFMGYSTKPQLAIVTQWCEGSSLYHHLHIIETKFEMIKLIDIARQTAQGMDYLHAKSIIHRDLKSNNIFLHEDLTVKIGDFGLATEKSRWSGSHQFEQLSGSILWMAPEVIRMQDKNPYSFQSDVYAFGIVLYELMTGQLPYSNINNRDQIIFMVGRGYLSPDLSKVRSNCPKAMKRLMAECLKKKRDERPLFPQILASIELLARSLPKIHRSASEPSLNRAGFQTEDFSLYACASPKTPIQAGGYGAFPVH
Procedure: Refer to Supplementary Appendix A for more details. […]
4.2.1.4. BRAF kinase assay […]
against BRAF. Mouse full-length GST-tagged BRAFV600E (7.5 ng, Invitrogen, PV3849) was pre-incubated with drug (1 µL) and assay dilution buffer (4 µL) for 60 min at 25 °C. In assay dilution buffer, a solution (5 µL) containing MgCl2 (30 mM), ATP (200 µM), recombinant human full length (200 ng) […] N-terminal His-tagged MEK1 (Invitrogen) was added to start the assay, subsequent to incubation for 25 min at 25 °C. The assay was stopped using 5X protein denaturing buffer (LDS) solution (5 µL). To further denature the protein, heat (70° C) was applied for 5 min.
10 µL of each reaction was loaded into the precast plates and electrophoresis was allowed to proceed. After completion of electrophoresis, the front part of the precast gel plate (holding hot ATP) was cut and afterwards cast-off. The dried gel was developed using a phosphor screen. A […]
served as positive control. […]
(FITC) and propidium iodide (PI) staining kit (BD Pharmingen, San Diego, USA). […]
4.3. Statistical analysis
Computerized Prism 5 program was used to statistically analyzed data using one-way ANOVA test followed by Tukey’s as post ANOVA for multiple comparison at P ≤.05. Data were presented

Compound: O=c1c2ccccc2nc(SCc2nc(-c3ccc(Cl)cc3)no2)n1-c1ccccc1 [Compound 9b, 2-((3-(4-Chlorophenyl)-1,2,4-oxadiazol-5-yl)methylthio)-3 phenylquinazolin-4(3H)-one]
- IC50 [1]: 26 ± 2 nM
- Effect on cell cycle (A-549 cells [2]): cell cycle arrest at the G2/M transition
- IC50 (EGFR): 57 ± 4 nM
- IC50 [3]: 22 ± 2 nM
- IC50 [4]: 24 ± 2 nM
- IC50 [5]: 24 ± 2 nM
- Necrosis percentage (A-549 cells [6]): 6.43%
- GI50 [7]: 24 nM
- IC50 (BRAF^V600E): 48 ± 4 nM
